# Experimental data: PubChem BioAssay (NCI)
#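 Method: 48-hour compound exposure of cells in 96-well plates, five concentrations, linear interpolation of endpoints. GI50 = concentration required for 50% inhibition of growth. TGI denotes the concentration required for complete inhibition of growth.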
# What was measured:
# Assay in all cases: DTP human tumour cell line panel, 48 h
# NCI-H460 lung = tested on: NCI-H460 lung
# OVCAR-5 ovarian = tested on: OVCAR-5 ovarian
# A498 renal = tested on: A498 renal
# HOP-62 NSCLC = tested on: HOP-62 NSCLC
# HT29 colon = tested on: HT29 colon
# CAKI-1 renal = tested on: CAKI-1 renal
# NCI/ADR-RES ovarian = tested on: NCI/ADR-RES ovarian
# HL-60(TB) leukemia = tested on: HL-60(TB) leukemia
# RXF 393 renal = tested on: RXF 393 renal
# MALME-3M melanoma = tested on: MALME-3M melanoma
# 786-0 renal = tested on: 786-0 renal
# MOLT-4 leukemia = tested on: MOLT-4 leukemia
# SNB-19 CNS = tested on: SNB-19 CNS
# NCI-H226 lung = tested on: NCI-H226 lung
# IGROV1 ovarian = tested on: IGROV1 ovarian
# DU-145 prostate = tested on: DU-145 prostate
# MDA-MB-435 = tested on: MDA-MB-435
# LOX IMVI melanoma = tested on: LOX IMVI melanoma
# HCT-116 colon = tested on: HCT-116 colon
# ACHN renal = tested on: ACHN renal
# MDA-MB-231 breast = tested on: MDA-MB-231 breast
# CCRF-CEM leukemia = tested on: CCRF-CEM leukemia
# SK-OV-3 ovarian = tested on: SK-OV-3 ovarian
# SK-MEL-5 melanoma = tested on: SK-MEL-5 melanoma
# EKVX NSCLC = tested on: EKVX NSCLC
# MDA-N = tested on: MDA-N
# SK-MEL-2 melanoma = tested on: SK-MEL-2 melanoma
# SN12C renal = tested on: SN12C renal
# M14 melanoma = tested on: M14 melanoma
# K-562 leukemia = tested on: K-562 leukemia
# NCI-H23 lung = tested on: NCI-H23 lung
# U251 CNS = tested on: U251 CNS
# BT-549 breast = tested on: BT-549 breast
# HCT-15 colon = tested on: HCT-15 colon
# SF-539 CNS = tested on: SF-539 CNS
# OVCAR-3 ovarian = tested on: OVCAR-3 ovarian
# TK-10 renal = tested on: TK-10 renal
# SF-268 CNS = tested on: SF-268 CNS
# KM12 colon = tested on: KM12 colon
# A549 NSCLC = tested on: A549 NSCLC
# COLO 205 colon = tested on: COLO 205 colon
# UACC-257 melanoma = tested on: UACC-257 melanoma
# SF-295 CNS = tested on: SF-295 CNS
# OVCAR-8 ovarian = tested on: OVCAR-8 ovarian
# UO-31 renal = tested on: UO-31 renal
# SK-MEL-28 melanoma = tested on: SK-MEL-28 melanoma
# OVCAR-4 ovarian = tested on: OVCAR-4 ovarian
# HCC-2998 colon = tested on: HCC-2998 colon
# SNB-75 CNS = tested on: SNB-75 CNS
# MCF7 breast = tested on: MCF7 breast
# SW-620 colon = tested on: SW-620 colon
# PC-3 prostate = tested on: PC-3 prostate
# T-47D breast = tested on: T-47D breast
# RPMI-8226 leukemia = tested on: RPMI-8226 leukemia
# NCI-H522 lung = tested on: NCI-H522 lung
# HS 578T breast = tested on: HS 578T breast
# SR leukemia = tested on: SR leukemia
# UACC-62 melanoma = tested on: UACC-62 melanoma
# HOP-92 NSCLC = tested on: HOP-92 NSCLC
compound,measurement,setting,value
C=Cc1nc2nnc(CCCCCCCCc3nnc4nc(C=C)[nH]n34)n2[nH]1,TGI,NCI-H460 lung,> 100 µM
same,TGI,OVCAR-5 ovarian,> 100 µM
same,TGI,A498 renal,> 100 µM
same,TGI,HOP-62 NSCLC,> 100 µM
same,TGI,HT29 colon,> 100 µM
same,TGI,CAKI-1 renal,> 100 µM
same,TGI,NCI/ADR-RES ovarian,> 100 µM
same,TGI,HL-60(TB) leukemia,> 100 µM
same,TGI,RXF 393 renal,> 100 µM
same,TGI,MALME-3M melanoma,> 100 µM
same,TGI,786-0 renal,> 100 µM
same,TGI,MOLT-4 leukemia,> 100 µM
same,TGI,SNB-19 CNS,> 100 µM
same,TGI,NCI-H226 lung,> 100 µM
same,TGI,IGROV1 ovarian,> 100 µM
same,TGI,DU-145 prostate,> 100 µM
same,TGI,MDA-MB-435,> 100 µM
same,TGI,LOX IMVI melanoma,> 100 µM
same,TGI,HCT-116 colon,> 100 µM
same,TGI,ACHN renal,> 100 µM
same,TGI,MDA-MB-231 breast,> 100 µM
same,TGI,CCRF-CEM leukemia,> 100 µM
same,TGI,SK-OV-3 ovarian,> 100 µM
same,TGI,SK-MEL-5 melanoma,> 100 µM
same,TGI,EKVX NSCLC,> 100 µM
same,TGI,MDA-N,> 100 µM
same,TGI,SK-MEL-2 melanoma,> 100 µM
same,TGI,SN12C renal,> 100 µM
same,TGI,M14 melanoma,> 100 µM
same,TGI,K-562 leukemia,> 100 µM
same,TGI,NCI-H23 lung,> 100 µM
same,TGI,U251 CNS,> 100 µM
same,TGI,BT-549 breast,> 100 µM
same,TGI,HCT-15 colon,> 100 µM
same,TGI,SF-539 CNS,> 100 µM
same,TGI,OVCAR-3 ovarian,> 100 µM
same,TGI,TK-10 renal,> 100 µM
same,TGI,SF-268 CNS,> 100 µM
same,TGI,KM12 colon,> 100 µM
same,TGI,A549 NSCLC,> 100 µM
same,TGI,COLO 205 colon,> 100 µM
same,TGI,UACC-257 melanoma,> 100 µM
same,TGI,SF-295 CNS,> 100 µM
same,TGI,OVCAR-8 ovarian,> 100 µM
same,TGI,UO-31 renal,> 100 µM
same,TGI,SK-MEL-28 melanoma,> 100 µM
same,TGI,OVCAR-4 ovarian,> 100 µM
same,TGI,HCC-2998 colon,> 100 µM
same,TGI,SNB-75 CNS,> 100 µM
same,TGI,MCF7 breast,> 100 µM
same,TGI,SW-620 colon,> 100 µM
same,TGI,PC-3 prostate,> 100 µM
CC1(C)CN(c2cc(C(F)(F)F)cc3cncn23)CCC12NC(=O)NC2=O (stereo not drawn),GI50,NCI-H460 lung,40.5 µM
same,TGI,NCI-H460 lung,> 100 µM
same,GI50,OVCAR-5 ovarian,66.1 µM
same,TGI,OVCAR-5 ovarian,> 100 µM
same,GI50,A498 renal,16.8 µM
same,TGI,A498 renal,55.3 µM
same,GI50,HOP-62 NSCLC,40.3 µM
same,TGI,HOP-62 NSCLC,> 100 µM
same,GI50,HT29 colon,50.9 µM
same,TGI,HT29 colon,> 100 µM
same,GI50,CAKI-1 renal,19.2 µM
same,TGI,CAKI-1 renal,92 µM
same,GI50,NCI/ADR-RES ovarian,67.5 µM
same,TGI,NCI/ADR-RES ovarian,> 100 µM
same,GI50,HL-60(TB) leukemia,22 µM
same,TGI,HL-60(TB) leukemia,48.9 µM
same,GI50,RXF 393 renal,17.5 µM
same,TGI,RXF 393 renal,61.1 µM
same,GI50,MALME-3M melanoma,42.3 µM
same,TGI,MALME-3M melanoma,> 100 µM
same,GI50,786-0 renal,32.8 µM
same,TGI,786-0 renal,> 100 µM
same,GI50,MOLT-4 leukemia,24.3 µM
same,TGI,MOLT-4 leukemia,> 100 µM
same,GI50,T-47D breast,21.4 µM
same,TGI,T-47D breast,> 100 µM
same,GI50,SNB-19 CNS,46.8 µM
same,TGI,SNB-19 CNS,> 100 µM
same,GI50,NCI-H226 lung,33.5 µM
same,TGI,NCI-H226 lung,> 100 µM
same,GI50,RPMI-8226 leukemia,30.5 µM
same,TGI,RPMI-8226 leukemia,> 100 µM
same,GI50,IGROV1 ovarian,30.5 µM
same,TGI,IGROV1 ovarian,> 100 µM
same,GI50,NCI-H522 lung,28.9 µM
same,TGI,NCI-H522 lung,> 100 µM
same,GI50,DU-145 prostate,56.2 µM
same,TGI,DU-145 prostate,> 100 µM
same,GI50,MDA-MB-435,42.2 µM
same,TGI,MDA-MB-435,> 100 µM
same,GI50,LOX IMVI melanoma,30.1 µM
same,TGI,LOX IMVI melanoma,> 100 µM
same,GI50,HCT-116 colon,26.3 µM
same,TGI,HCT-116 colon,> 100 µM
same,GI50,ACHN renal,33.7 µM
same,TGI,ACHN renal,> 100 µM
same,GI50,MDA-MB-231 breast,29.2 µM
same,TGI,MDA-MB-231 breast,> 100 µM
same,GI50,CCRF-CEM leukemia,35.6 µM
same,TGI,CCRF-CEM leukemia,> 100 µM
same,GI50,SK-OV-3 ovarian,36.9 µM
same,TGI,SK-OV-3 ovarian,> 100 µM
same,GI50,SK-MEL-5 melanoma,18.1 µM
same,TGI,SK-MEL-5 melanoma,35.4 µM
same,GI50,EKVX NSCLC,4.33 µM
same,TGI,EKVX NSCLC,40.6 µM
same,GI50,SK-MEL-2 melanoma,32.4 µM
same,TGI,SK-MEL-2 melanoma,> 100 µM
same,GI50,SN12C renal,36.2 µM
same,TGI,SN12C renal,> 100 µM
same,GI50,M14 melanoma,33.4 µM
same,TGI,M14 melanoma,> 100 µM
same,GI50,HS 578T breast,21.1 µM
same,TGI,HS 578T breast,90.1 µM
same,GI50,K-562 leukemia,40.9 µM
same,TGI,K-562 leukemia,> 100 µM
same,GI50,NCI-H23 lung,35.5 µM
same,TGI,NCI-H23 lung,> 100 µM
same,GI50,U251 CNS,37.5 µM
same,TGI,U251 CNS,> 100 µM
same,GI50,SR leukemia,48.5 µM
same,TGI,SR leukemia,> 100 µM
same,GI50,BT-549 breast,23.2 µM
same,TGI,BT-549 breast,> 100 µM
same,GI50,HCT-15 colon,32.4 µM
same,TGI,HCT-15 colon,> 100 µM
same,GI50,UACC-62 melanoma,27.7 µM
same,TGI,UACC-62 melanoma,> 100 µM
same,GI50,SF-539 CNS,42.5 µM
same,TGI,SF-539 CNS,> 100 µM
same,GI50,OVCAR-3 ovarian,38.5 µM
same,TGI,OVCAR-3 ovarian,> 100 µM
same,GI50,TK-10 renal,37.8 µM
same,TGI,TK-10 renal,> 100 µM
same,GI50,SF-268 CNS,38.7 µM
same,TGI,SF-268 CNS,> 100 µM
same,GI50,KM12 colon,45.1 µM
same,TGI,KM12 colon,> 100 µM
same,GI50,A549 NSCLC,38 µM
same,TGI,A549 NSCLC,> 100 µM
same,GI50,COLO 205 colon,41.9 µM
same,TGI,COLO 205 colon,> 100 µM
same,GI50,UACC-257 melanoma,52.7 µM
same,TGI,UACC-257 melanoma,> 100 µM
same,GI50,SF-295 CNS,30.3 µM
same,TGI,SF-295 CNS,> 100 µM
same,GI50,OVCAR-8 ovarian,36 µM
same,TGI,OVCAR-8 ovarian,> 100 µM
same,GI50,UO-31 renal,21.1 µM
same,TGI,UO-31 renal,83.7 µM
same,GI50,SK-MEL-28 melanoma,49.9 µM
same,TGI,SK-MEL-28 melanoma,> 100 µM
same,GI50,OVCAR-4 ovarian,31.6 µM
same,TGI,OVCAR-4 ovarian,> 100 µM
same,GI50,HOP-92 NSCLC,20.1 µM
same,TGI,HOP-92 NSCLC,86.5 µM
same,GI50,HCC-2998 colon,72.5 µM
same,TGI,HCC-2998 colon,> 100 µM
same,GI50,SNB-75 CNS,16.3 µM
same,TGI,SNB-75 CNS,68.5 µM
same,GI50,MCF7 breast,24.2 µM
same,TGI,MCF7 breast,> 100 µM
same,GI50,SW-620 colon,52.6 µM
same,TGI,SW-620 colon,> 100 µM
same,GI50,PC-3 prostate,24.4 µM
same,TGI,PC-3 prostate,> 100 µM
